{
  "source": "patent US7718715B2",
  "about": "“pH-modified latex comprising a synergistic combination of biocides” (S.C. Johnson & Son, Inc., priority 2004, dated 2010)",
  "key": {"[1]": {"test_system": "Escherichia coli #11229, Pseudomonas aeruginosa #15442", "test": "Challenge Test (Antimicrobial Effectiveness Test), bacterial inoculum (1:1 mixture)", "type": "cell-based, E. coli & P. aeruginosa", "conditions": "stabilized acrylic latex A, DN 22%", "method": "The following cultures were obtained from American Type Culture Collection (ATCC) at 10801 University Boulevard, Manassas, Va. 20110-2209: Escherichia coli #11229, Pseudomonas aeruginosa #15442, Candida albicans #10231, Aspergillus niger #6275. The bacterial inoculum was 0.10 ml of a 1:1 mixture of the 24-hr±4 hr culture of E. coli and P. aeruginosa in 25 grams of sample to give approximately 4×10^6 CFU/g. Both E. coli culture and the P. aeruginosa culture were grown in Nutrient Broth (Difco Laboratories, Detroit, Mich.) at 35° C. Each of the 25-g samples were inoculated or challenged with 0.10 ml of the bacterial inoculum, the yeast inoculum, and the mold inoculum respectively on day-0 and day-14. All samples were stored at ambient temperature. Each sample (10 microliter) was streaked on appropriate agar plates (bacteria on Tryptic Soy Agar (Difco Laboratories, Detroit, Mich.) plates with neutralizer and yeast/mold on Potato Dextrose Agar (Difco Laboratories, Detroit, Mich.) plates with neutralizer) on day-1, day-2, day-3, day-7, day-14, day-15, day-16, day-17, day-21, and day-28 to test for survivors. Streaked plates were incubated at appropriate temperature and time (48-hr at 35±2° C. for bacteria and 72-hr at 28±2° C. for yeast/mold). On day-14, each sample was re-inoculated with appropriate inoculum after streaking on agar plates. Plates were read after incubation time. Recovery of surviving organisms at 14 days was a failing result for the challenge test. Biocides were always added after the reaction has been completed and after the batch has been cooled to <50° C. The desired temperature was dependent on the specific biocide. Many biocides become deactivated if exposed to high temperatures for an extended time. Each biocide was diluted with about 5× its weight with DI water and slowly added to the batch with good agitation. The dilution is to prevent the biocide from shocking the latex. The batch was mixed for a minimum of 20 minutes after the biocide was added to ensure good incorporation. If any temporary destabilization to the latex had occurred, it had time to recover prior to filtration. The Challenge Test is a qualitative laboratory procedure used to differentiate poorly and marginally preserved products from well-preserved products. Products are intentionally inoculated with test organisms and then evaluated by use of streak plating technique to determine if microbial reduction has been attained."}, "Candida albicans #10231": {"test_system": "Candida albicans #10231", "test": "Challenge Test (Antimicrobial Effectiveness Test), yeast inoculum", "type": "cell-based", "parameters": "key to Challenge Test result: Yeast C. albicans: Fail: Recovery of surviving organisms at 14 days was a failing result for the challenge test", "conditions": "for Challenge Test result: Yeast C. albicans: stabilized acrylic latex A, DN 22%", "method": "The following cultures were obtained from American Type Culture Collection (ATCC) at 10801 University Boulevard, Manassas, Va. 20110-2209: Escherichia coli #11229, Pseudomonas aeruginosa #15442, Candida albicans #10231, Aspergillus niger #6275.\nThe yeast inoculum was 0.10 ml of a 72-hr±4 hr culture of C. albicans in 25 grams of sample to give approximately 2×10^5 CFU/g. The C. albicans culture was grown in Potato Dextrose Broth (Difco Laboratories, Detroit, Mich.) at 28° C.\nEach of the 25-g samples were inoculated or challenged with 0.10 ml of the bacterial inoculum, the yeast inoculum, and the mold inoculum respectively on day-0 and day-14. All samples were stored at ambient temperature. Each sample (10 microliter) was streaked on appropriate agar plates (bacteria on Tryptic Soy Agar (Difco Laboratories, Detroit, Mich.) plates with neutralizer and yeast/mold on Potato Dextrose Agar (Difco Laboratories, Detroit, Mich.) plates with neutralizer) on day-1, day-2, day-3, day-7, day-14, day-15, day-16, day-17, day-21, and day-28 to test for survivors. Streaked plates were incubated at appropriate temperature and time (48-hr at 35±2° C. for bacteria and 72-hr at 28±2° C. for yeast/mold). On day-14, each sample was re-inoculated with appropriate inoculum after streaking on agar plates. Plates were read after incubation time. Recovery of surviving organisms at 14 days was a failing result for the challenge test.\nBiocides were always added after the reaction has been completed and after the batch has been cooled to <50° C. The desired temperature was dependent on the specific biocide. Many biocides become deactivated if exposed to high temperatures for an extended time. Each biocide was diluted with about 5× its weight with DI water and slowly added to the batch with good agitation. The dilution is to prevent the biocide from shocking the latex. The batch was mixed for a minimum of 20 minutes after the biocide was added to ensure good incorporation. If any temporary destabilization to the latex had occurred, it had time to recover prior to filtration.\nThe Challenge Test is a qualitative laboratory procedure used to differentiate poorly and marginally preserved products from well-preserved products. Products are intentionally inoculated with test organisms and then evaluated by use of streak plating technique to determine if microbial reduction has been attained."}, "[2]": {"conditions": "0.10% Bioban CS-1135, 0.00% Bronopol, pH 6.68"}, "[3]": {"conditions": "0.20% Bioban CS-1135, 0.00% Bronopol, pH 6.69"}, "[4]": {"conditions": "0.80% Bioban CS-1135, 0.00% Bronopol, pH 6.62"}, "[5]": {"conditions": "1.20% Bioban CS-1135, 0.00% Bronopol, pH 6.64"}, "[6]": {"conditions": "2.00% Bioban CS-1135, 0.00% Bronopol, pH 6.82"}, "[7]": {"conditions": "0.10% Bronopol (30% active), 0.00% Bioban CS-1135, pH 6.64, Table 1"}, "[8]": {"conditions": "0.10% Bronopol (30% active), 0.00% Dowicil 75, pH 6.64, Table 3"}, "[9]": {"conditions": "0.20% Bronopol (30% active), 0.00% Bioban CS-1135, pH 6.65, Table 1"}, "[10]": {"conditions": "0.20% Bronopol (30% active), 0.00% Dowicil 75, pH 6.65, Table 3"}, "[11]": {"conditions": "0.50% Bronopol (30% active), 0.00% Bioban CS-1135, pH 6.58, Table 1"}, "[12]": {"conditions": "0.50% Bronopol (30% active), 0.00% Dowicil 75, pH 6.58, Table 3"}, "[13]": {"conditions": "0.80% Bronopol (30% active), 0.00% Bioban CS-1135, pH 6.57, Table 1"}, "[14]": {"conditions": "0.80% Bronopol (30% active), 0.00% Dowicil 75, pH 6.57, Table 3"}, "[15]": {"conditions": "1.20% Bronopol (30% active), 0.00% Bioban CS-1135, pH 6.57, Table 1"}, "[16]": {"conditions": "1.20% Bronopol (30% active), 0.00% Dowicil 75, pH 6.57, Table 3"}},
  "data": [
    {"smiles": "CC1(C)COCN1", "note": "[Bioban CS-1135, 4,4-dimethyl-oxazolidine]", "values": [
      {"measurement": "Challenge Test result: Bacteria E. coli & P. aeruginosa", "setting": "[1]; [2]", "value": "Pass"},
      {"measurement": "Challenge Test result: Bacteria E. coli & P. aeruginosa", "setting": "[1]; [3]", "value": "Pass"},
      {"measurement": "Challenge Test result: Bacteria E. coli & P. aeruginosa", "setting": "[1]; [4]", "value": "Pass"},
      {"measurement": "Challenge Test result: Bacteria E. coli & P. aeruginosa", "setting": "[1]; [5]", "value": "Pass"},
      {"measurement": "Challenge Test result: Bacteria E. coli & P. aeruginosa", "setting": "[1]; [6]", "value": "Pass"},
      {"measurement": "Challenge Test result: Yeast C. albicans", "setting": "Candida albicans #10231; [2]", "value": "Fail"},
      {"measurement": "Challenge Test result: Yeast C. albicans", "setting": "Candida albicans #10231; [3]", "value": "Fail"},
      {"measurement": "Challenge Test result: Yeast C. albicans", "setting": "Candida albicans #10231; [4]", "value": "Fail"},
      {"measurement": "Challenge Test result: Yeast C. albicans", "setting": "Candida albicans #10231; [5]", "value": "Fail"},
      {"measurement": "Challenge Test result: Yeast C. albicans", "setting": "Candida albicans #10231; [6]", "value": "Pass"},
      {"measurement": "killing of yeast (C. albicans)", "setting": "Candida albicans #10231; BIOBAN CS-1135 at 1.2%, acrylic latex A", "value": "failed to kill"},
      {"measurement": "control of Candida albicans", "setting": "Candida albicans #10231; maximum allowable level, test stabilized acrylic latex", "value": "failed to control"}
    ]},
    {"smiles": "O=[N+]([O-])C(Br)(CO)CO", "note": "[Bronopol, 2-bromo-2-nitro-1,3-propanediol]", "values": [
      {"measurement": "Challenge Test result: Bacteria E. coli & P. aeruginosa", "setting": "[1]; [7]", "value": "Pass"},
      {"measurement": "Challenge Test result: Bacteria E. coli & P. aeruginosa", "setting": "[1]; [8]", "value": "Pass"},
      {"measurement": "Challenge Test result: Bacteria E. coli & P. aeruginosa", "setting": "[1]; [9]", "value": "Pass"},
      {"measurement": "Challenge Test result: Bacteria E. coli & P. aeruginosa", "setting": "[1]; [10]", "value": "Pass"},
      {"measurement": "Challenge Test result: Bacteria E. coli & P. aeruginosa", "setting": "[1]; [11]", "value": "Pass"},
      {"measurement": "Challenge Test result: Bacteria E. coli & P. aeruginosa", "setting": "[1]; [12]", "value": "Pass"},
      {"measurement": "Challenge Test result: Bacteria E. coli & P. aeruginosa", "setting": "[1]; [13]", "value": "Pass"},
      {"measurement": "Challenge Test result: Bacteria E. coli & P. aeruginosa", "setting": "[1]; [14]", "value": "Pass"},
      {"measurement": "Challenge Test result: Bacteria E. coli & P. aeruginosa", "setting": "[1]; [15]", "value": "Pass"},
      {"measurement": "Challenge Test result: Bacteria E. coli & P. aeruginosa", "setting": "[1]; [16]", "value": "Pass"},
      {"measurement": "Challenge Test result: Yeast C. albicans", "setting": "Candida albicans #10231; [7]", "value": "Fail"},
      {"measurement": "Challenge Test result: Yeast C. albicans", "setting": "Candida albicans #10231; [8]", "value": "Pass"},
      {"measurement": "Challenge Test result: Yeast C. albicans", "setting": "Candida albicans #10231; [9]", "value": "Fail"},
      {"measurement": "Challenge Test result: Yeast C. albicans", "setting": "Candida albicans #10231; [10]", "value": "Pass"},
      {"measurement": "Challenge Test result: Yeast C. albicans", "setting": "Candida albicans #10231; [11]", "value": "Pass"},
      {"measurement": "Challenge Test result: Yeast C. albicans", "setting": "Candida albicans #10231; [12]", "value": "Pass"},
      {"measurement": "Challenge Test result: Yeast C. albicans", "setting": "Candida albicans #10231; [13]", "value": "Pass"},
      {"measurement": "Challenge Test result: Yeast C. albicans", "setting": "Candida albicans #10231; [14]", "value": "Pass"},
      {"measurement": "Challenge Test result: Yeast C. albicans", "setting": "Candida albicans #10231; [15]", "value": "Pass"},
      {"measurement": "Challenge Test result: Yeast C. albicans", "setting": "Candida albicans #10231; [16]", "value": "Pass"}
    ]}
  ]
}
